Patent US20090181889A1, “COMPOSITIONS AND METHODS FOR DETECTION AND TREATMENT OF HUMAN HERPESVIRUS (HHV)-6” (priority 2006, published 2009)

Experiments:
HHV-6B U51 [1] = biological target: T1, HHV-6B U51 (Human herpesvirus 6B, UniProt P52542); assay type: binding
HEK293 cells = assay type: cell-based, human
[2] = test system: wild-type 293 cells (HEK 293 cell membranes); experiment: [35S]GTPγS binding to native (wild-type) HEK293 cell membranes; assay type: biochemical, human; conditions: binding without compound = 100%, three experiments
HHV-6B U51 [3] = biological target: T2, HHV-6B U51 (Human herpesvirus 6B, UniProt P52542); assay type: biochemical; conditions: HHV-6B U51 HEK293 membranes; for % Control [35S]GTPγS binding ± SEM, U51 (+Tet): induced with 1 μg/ml tetracycline 24 h; for % Control [35S]GTPγS binding ± SEM, U51 (Unind): no tetracycline (uninduced)
T2 sequence (P52542 whole entry, looked up): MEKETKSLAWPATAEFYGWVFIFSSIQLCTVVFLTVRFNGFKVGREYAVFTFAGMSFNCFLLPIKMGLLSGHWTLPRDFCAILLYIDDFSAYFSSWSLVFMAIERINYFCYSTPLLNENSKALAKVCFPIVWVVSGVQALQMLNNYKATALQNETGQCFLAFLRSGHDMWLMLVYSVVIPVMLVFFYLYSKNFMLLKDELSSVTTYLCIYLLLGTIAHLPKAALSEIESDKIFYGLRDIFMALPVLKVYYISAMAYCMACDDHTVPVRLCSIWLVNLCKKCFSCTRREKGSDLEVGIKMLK

U51 = biological target: T3, U51 (Human herpesvirus 6A, UniProt P52382); conditions: Fitzsimons C P, et al. 2005; cited from earlier work
T3 sequence (P52382 1-301): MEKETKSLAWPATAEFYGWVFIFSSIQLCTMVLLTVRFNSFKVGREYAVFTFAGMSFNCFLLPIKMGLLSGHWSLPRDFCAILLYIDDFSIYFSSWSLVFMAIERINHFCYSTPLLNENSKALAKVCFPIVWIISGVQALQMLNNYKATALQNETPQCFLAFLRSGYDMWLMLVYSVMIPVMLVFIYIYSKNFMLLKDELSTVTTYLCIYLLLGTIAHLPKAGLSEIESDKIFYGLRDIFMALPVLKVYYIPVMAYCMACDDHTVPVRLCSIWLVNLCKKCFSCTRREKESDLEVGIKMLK

HHV-6 U51 = biological target: T4, HHV-6 U51 (Human herpesvirus 6A, UniProt P52382); conditions: Beisser, et al. 1998; cited from earlier work
T4 sequence (P52382 1-301): T3 sequence (P52382 1-301)

HHV-6B U51 [4] = biological target: T1, HHV-6B U51; assay type: biochemical; conditions: HHV-6B U51 HEK293 membranes; for % Control [35S]GTPγS binding ± SEM, U51 (+Tet): induced with 1 μg/ml tetracycline 24 h; for % Control [35S]GTPγS binding ± SEM, U51 (Unind): no tetracycline (uninduced); remark: listed apart in the source
[5] = test system: human μ, δ, or κ opioid receptor; experiment: [35S]GTPγS binding to control CHO cell membranes with opioid receptors; assay type: biochemical; conditions: CHO cells stably transfected with human μ, Emax obtained at opioid concentration less than 1 μM
[6] = test system: herpesviruses serine proteases; conditions: cited from earlier work

## CCC12CCN(CC3(O)CC3)C(Cc3ccc(O)cc31)C2(C)C (centres unmarked) [[^3H]bremazocine]
HHV-6B U51 [1]
  specific binding of radiolabelled opioid to HHV-6B U51 membranes: did not specifically bind

## US28: human cytomegalovirus 7-transmembrane protein, expressed from plasmid as positive control
HEK293 cells
  cell fusion activity compared to cells transfected with VSV-G alone: ~3 fold

## RANTES: β-chemokine (CC-chemokine)
[2]
  % Control [35S]GTPγS binding ± SEM, Native: 101 ± 2%
HHV-6B U51 [3]
  % Control [35S]GTPγS binding ± SEM, U51 (+Tet): 104 ± 2%
  % Control [35S]GTPγS binding ± SEM, U51 (Unind): 111 ± 1%
U51
  action at U51: agonists
HHV-6 U51
  binding affinity to HHV-6 U51: nanomolar affinity

## kappa opioid receptor: rat kappa opioid receptor expression plasmid, negative control
HEK293 cells
  cell fusion activity compared to cells transfected with VSV-G alone: no effect

## Oc1ccc2c3c1O[C@H]1c4[nH]c5ccccc5c4C[C@@]4(O)[C@@H](C2)N(CC2CC2)CC[C@]314 [Naltrindole, naltrindole]
[2]
  % Control [35S]GTPγS binding ± SEM, Native: 96 ± 4%
HHV-6B U51 [4]
  % Control [35S]GTPγS binding ± SEM, U51 (+Tet): 97 ± 4%
  % Control [35S]GTPγS binding ± SEM, U51 (Unind): 98 ± 4%

## C[C@@H](NC(=O)[C@@H](N)Cc1ccc(O)cc1)C(=O)NCC(=O)N(C)[C@@H](Cc1ccccc1)C(=O)NCCO [DAMGO]
[2]
  % Control [35S]GTPγS binding ± SEM, Native: 106 ± 4%
HHV-6B U51 [4]
  % Control [35S]GTPγS binding ± SEM, U51 (+Tet): 86 ± 6%
  % Control [35S]GTPγS binding ± SEM, U51 (Unind): 96 ± 3%
[5]
  Control Cell Emax, % Control [35S]GTPγS binding ± SEM: 216 ± 4.4%

## Interleukin-8: chemokine ligand
[2]
  % Control [35S]GTPγS binding ± SEM, Native: 101 ± 5%
HHV-6B U51 [3]
  % Control [35S]GTPγS binding ± SEM, U51 (+Tet): 96 ± 3%
  % Control [35S]GTPγS binding ± SEM, U51 (Unind): 96 ± 2%

## C[C@@H](NC(=O)[C@@H](N)Cc1ccc(O)cc1)C(=O)NCC(=O)N(C)[C@@H](Cc1ccccc1)C(=O)NCCO [[^3H]DAMGO]
HHV-6B U51 [1]
  specific binding of radiolabelled opioid to HHV-6B U51 membranes: did not specifically bind

## CN1CC[C@]23c4c5ccc(O)c4O[C@H]2[C@@H](O)C=C[C@H]3[C@H]1C5 [Morphine, morphine]
[2]
  % Control [35S]GTPγS binding ± SEM, Native: 99 ± 9%
HHV-6B U51 [4]
  % Control [35S]GTPγS binding ± SEM, U51 (+Tet): 91 ± 9%
  % Control [35S]GTPγS binding ± SEM, U51 (Unind): 99 ± 0.9%

## CCL11: chemokine
U51
  action at U51: agonists

## Oc1ccc2c3c1O[C@H]1c4[nH]c5ccccc5c4C[C@@]4(O)[C@@H](C2)N(CC2CC2)CC[C@]314 [[^3H]naltrindole]
HHV-6B U51 [1]
  specific binding of radiolabelled opioid to HHV-6B U51 membranes: did not specifically bind

## CC(C)[C@H](NC(=O)[C@H](CCC(=O)O)NC(=O)[C@H](Cc1ccccc1)NC(=O)[C@@H](C)NC(=O)[C@@H](N)Cc1ccc(O)cc1)C(=O)N[C@H](C(=O)NCC(N)=O)C(C)C [Deltorphin II]
HHV-6B U51 [4]
  % Control [35S]GTPγS binding ± SEM, U51 (+Tet): 91 ± 6%
  % Control [35S]GTPγS binding ± SEM, U51 (Unind): 98 ± 2%

## O=S(=O)(F)Cc1ccccc1 [PMSF, phenylmethylsulphonyi fluoride]
[6]
  inhibition of herpesvirus serine proteases: weakly inhibited

## MCP-3: chemokine ligand
[2]
  % Control [35S]GTPγS binding ± SEM, Native: 97 ± 3%
HHV-6B U51 [3]
  % Control [35S]GTPγS binding ± SEM, U51 (+Tet): 103 ± 2%
  % Control [35S]GTPγS binding ± SEM, U51 (Unind): 109 ± 9%

## CCL2: chemokine
U51
  action at U51: agonists

## DPDPE
[2]
  % Control [35S]GTPγS binding ± SEM, Native: 104 ± 1%
HHV-6B U51 [4]
  % Control [35S]GTPγS binding ± SEM, U51 (+Tet): 99 ± 2%
  % Control [35S]GTPγS binding ± SEM, U51 (Unind): 96 ± 1%
[5]
  Control Cell Emax, % Control [35S]GTPγS binding ± SEM: 254 ± 16%

B1: Lymphotactin: chemokine ligand (protein)
chain: VGSEVSDKRTCVSLTTQRLPVSRIKTYTITEGSLRAVIFITKRGLKVCADPQATWVRDVVRSMDRKSNTRNNMIQTKPTGTQQSTNTAVTLTG
[2]
  % Control [35S]GTPγS binding ± SEM, Native: 97 ± 2%
HHV-6B U51 [3]
  % Control [35S]GTPγS binding ± SEM, U51 (+Tet): 104 ± 7%
  % Control [35S]GTPγS binding ± SEM, U51 (Unind): 99 ± 3%
